Data taken from patent US5270302A, “Derivatives of tetrapeptides as CCK agonists” (priority 1991, dated 1993).

Assays:
mice [1] = experiment: Measurement of plasma insulin in mice following treatment with CCK-8 or a CCK agonist; assay type: in vivo; settings: tail vein injection, 2 minutes
Description: Measurement of Plasma Insulin in Mice Following Treatment With CCK-8 or a CCK Agonist
Male mice, weighing from about 20 to about 30 g each, were used in all experiments. The animals were fed with laboratory lab chow and water ad libitum. CCK-8 or one the CCK agonist compounds of this invention was injected into the tail vein. Two minutes later, the animals were sacrificed and the blood was collected in 1.5 mL heparinized polypropylene tubes. The tubes were centrifuged at 10,000×g for 2 minutes. The insulin levels were determined in the supernatant, i.e., plasma, by radioimmuno assay (RIA) using kits obtained from Radioassay Systems Laboratory (Carson, CA.) or Novo Biolabs (Danbury, Conn.). The results of this assay are shown in Table 3 and are expressed as the percent increase in insulin secretion over insulin secretion observed in mice injected with a saline solution. Each dose was tested in at least six mice and the values presented are averages for the group of mice tested at each dose.

mice [2] = experiment: Behavioral effect of CCK agonists in mice (suppression of locomotor activity); assay type: in vivo
Description: Behavioral Effect of CCK Agonists in Mice
The animals were placed on a slightly elevated metal grid and restrained by the thumb and forefinger at the level of the shoulders, thus immobilizing their heads. Injections were made with a 30 gauge needle with a "stop" consisting of a piece of tygon tubing to limit penetration of the needle to about 4.5 mm below the surface of the skin. The needle was inserted perpendicular to the skull at a midline point equidistant from each eye and an equal distance posterior from the level of the eyes such that the injection site and the two eyes form an equilateral triangle. The injection volume (5 ul) was expelled smoothly over a period of approximately 1 second.
Immediately after the injections the mice were placed in their cages and allowed a 15 minute recovery period prior to the beginning of behavioral observations.
For the behavioral observations, the mice were placed in clear plastic cages. Each cage measured 19×26×15 cm and contained a 60-tube polypropylene test tube rack place on end in the center of the cage to enhance exploratory activity. Observations were made every 30 seconds for a period of 30 minutes. […] Differences among groups were analyzed by Newman-Kewels analysis and a probability level of p<0.05 was accepted as significant.

rats [3] = experiment: Feeding effect of CCK agonists in food-deprived rats; assay type: in vivo; settings: i.p., dose 20 μg/kg, one hour feeding, vehicle 9.40 grams
Description: Feeding Effect of CCK Agonists in Rats
Forty male, Sprague-Dawley rats were subjected to a 23 hour food deprivation schedule for four days. On the fifth day, the animals were divided into five equal groups based on their previous (4th day) food intake. […] The amount of food consumed was measured after subtraction of spillage.

rats [4] = experiment: Feeding effects of chronic administration of CCK-8 and CCK agonists in rat (liquid diet); assay type: in vivo; settings: ip, 10 nmol/kg, 11 days of testing
Description: Feeding Effects of Chronic Administration of CCK-8 and CCK Agonists in Rat
Adult male Sprague-Dawley rats, weighing approximately 250 g, were placed on a restricted diet. Rats were weighed every morning and were allowed access to a liquid diet (Ensure®) for 60 minutes in the morning and 45 minutes in the late afternoon; intakes were recorded every 15 minutes. […] Six to 10 minutes later, the rats were presented with the diet, and intakes were recorded as usual. No injections were administered prior to the PM feeding. After 11 days of testing, half of the animals were sacrificed while the remaining rats were withdrawn from treatment and injected with vehicle for 4 days.

guinea pig gallbladder = settings: read-out: EC50 for contraction; isolated guinea pig gallbladder, 37° C.; 50% of the compound's own maximal contraction
Description: Guinea Pig Gallbladder Contraction
Gallbladders were obtained from male guinea pigs (250-300 gm). The bile was emptied by a small incision and the gallbladder was suspended in an organ bath. The tissue was maintained at 37° C., suspended in Krebs-Ringer buffer (mM: NaCl, 118; KCl, 4.7; CaCl2, 2.5; MgCl2, 1.2; NaH2 PO4, 1.2; NaHCO3, 25; choline chloride, 30 mM; glucose, 11) and bubbled with 95% O2 -5% CO2. Isometric contractions were recorded with a Grass polygraph. Baseline tension was set at 0.3 grams. After equilibration for approximately 30 minutes, CCK-8 (20 nM) was introduced and tensions were recorded. After reaching maximal contractions (about 5 minutes), the drug was washed out by overflow. The CCK-8 addition was repeated twice to ensure constant force of contraction.

CSCC[C@H](NC(=O)[C@H](Cc1ccc(OS(=O)(=O)O)cc1)NC(=O)[C@@H](N)CC(=O)O)C(=O)NCC(=O)N[C@@H](Cc1c[nH]c2ccccc12)C(=O)N[C@@H](CCSC)C(=O)N[C@@H](CC(=O)O)C(=O)N[C@@H](Cc1ccccc1)C(N)=O [CCK-8, Asp-Tyr(SO3 H)-Met-Gly-Trp-Met-Asp-PheNH2]
% Increase In Insulin Secretion Versus Saline Control (mice [1]; dose 3 nmole/kg): 65%
% Increase In Insulin Secretion Versus Saline Control (mice [1]; dose 10 nmole/kg): 85%
% Increase In Insulin Secretion Versus Saline Control (mice [1]; dose 30 nmole/kg): 90%
% Increase In Insulin Secretion Versus Saline Control (mice [1]; dose 100 nmole/kg): 70%
Minimal Effective Dose, suppression of locomotor activity (mice [2]; ICV administration): 3.0 nmol/mouse
Minimal Effective Dose, suppression of locomotor activity (mice [2]; IP administration): 0.001 µmol/kg
Mean Food Intake (rats [3]): 6.56 grams
AM liquid food intake versus controls (rats [4]): significantly reduced intakes on just the first and last treatment days
body weight gain versus controls (rats [4]): no significant effects on body weight gain
EC50 (guinea pig gallbladder): 5.9 nM
